From patent US5459270A, “Azacyclic compounds, processes for their preparation and pharmaceutical compositions containing them” (Merck Sharp & Dohme Limited, priority 1991, dated 1995)
Where a name gives a salt, the structure may show the parent alone. Read-outs that look alike come from different tables or passages of the source.

Target: human neurokinin-1-receptor (NK1R) (Homo sapiens, UniProt P25103)
Assay: biochemical
Assay type: binding
Conditions: displacement of 125I-substance P, human NK1R in COS or CHO cells
Experimental: To express the cloned human neurokinin-1-receptor (NK1R) transiently in COS, the cDNA for the human NK1R was cloned into the expression vector pCDM9 which was derived from pCDM8 (INVITROGEN) by inserting the ampicillin resistance gene (nucleotide 1973 to 2964 from BLUESCRIPT SK+ (trademark, […], La Jolla, Calif., USA)) into the Sac II site. Transfection of 20 ug of the plasmid DNA into 10 million COS cells was achieved by electroporation in 800 μl of transfection buffer (135 mM NaCl, 1.2 mM CaCl2, 1.2 mM MgCl2, 2.4 mM K2 HPO4, 0.6 mM KH2 PO4, 10 mM glucose, 10 mM N-2-hydroxyethyl-piperazine-N'-2-ethane sulphonic acid (HEPES) pH 7.4) at 260 V and 950 μF using the IBI GENEZAPPER (trademark IBI, New Haven, Conn., USA). The cells were incubated in 10% fetal calf serum, 2 mM glutamine, 100 U/ml penicillin-streptomycin, and 90% DMEM media (GIBCO, Grand Island, N.Y., USA) in 5% CO2 at 37° C. for three days before the binding assay.
To establish a stable cell line expressing cloned human NK1R, the cDNA was subcloned into the vector pRcCMV (INVITROGEN). Transfection of 20 μg of the plasmid DNA into CHO cells was achieved by electroporation in 800 μl of transfection buffer supplemented with 0.625 mg/ml Herring sperm DNA at 300 V and 950 μF using the IBI GENEZAPPER (IBI). The transfected cells were incubated in CHO media [10% fetal calf serum, 100 U/ml penicillin-streptomycin, 2 mM glutamine, 1/500 hypoxanthine-thymidine (ATCC), 90% IMDM media (JRH BIOSCIENCES, Lenexa, Kans., USA), 0.7 mg/ml G418 (GIBCO)] in 5% CO2 at 37° C. until colonies were visible. Each colony was separated and propagated. The cell clone with the highest number of human NK1R was selected for subsequent applications such as drug screening.
The binding assay of human NK1R expressed in either COS or CHO cells is based on the use of ^125 I-substance P (^125 I-SP, from DU PONT, Boston, Mass.) as a radioactively labeled ligand which competes with unlabeled substance P or any other ligand for binding to the human NK1R. […] The tubes were incubated at 4° C. or at room temperature for 1 hour with gentle shaking. The bound radioactivity was separated from unbound radioactivity by GF/C filter (BRANDEL, Gaithersburg, Md.) which was pre-wetted with 0.1% polyethylenimine. The filter was washed with 3 ml of wash buffer (50 mM Tris pH 7.5, 5 mM MnCl2, 50 mM NaCl) three times and its radioactivity was determined by gamma counter.

Chain of human neurokinin-1-receptor (NK1R) (P25103 whole entry): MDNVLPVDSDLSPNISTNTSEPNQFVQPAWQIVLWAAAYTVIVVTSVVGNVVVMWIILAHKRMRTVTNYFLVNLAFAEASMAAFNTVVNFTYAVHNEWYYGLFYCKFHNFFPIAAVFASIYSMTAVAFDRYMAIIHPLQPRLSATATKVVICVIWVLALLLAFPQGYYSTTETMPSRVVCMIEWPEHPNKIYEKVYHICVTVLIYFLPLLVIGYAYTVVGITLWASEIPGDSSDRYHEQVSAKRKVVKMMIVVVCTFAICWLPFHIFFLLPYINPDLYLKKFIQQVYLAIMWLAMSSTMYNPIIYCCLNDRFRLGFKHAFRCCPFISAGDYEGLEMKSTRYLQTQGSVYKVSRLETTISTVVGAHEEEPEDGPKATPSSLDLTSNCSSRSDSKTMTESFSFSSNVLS

Row | IC50 (read-out: IC50 @ NKIR) | Molecule | IC50 (IC50 @ NKIR)
1 | 20 nM | CN1CCC[C@H](OCc2cc(C(F)(F)F)cc(C(F)(F)F)c2)[C@@H]1c1ccccc1 [Example 10, (+)-cis-3-((3,5-Bis(trifluoromethyl)phenyl)methyloxy)-1-methyl-2-phenylpiperidine] | 
2 | 100 nM | C[N+]1(C)CCC[C@H](OCc2cc(C(F)(F)F)cc(C(F)(F)F)c2)[C@@H]1c1ccccc1 [Example 14, (2S,3S)-3-((3,5-Bis(trifluoromethyl)phenyl)methyloxy)-1,1-dimethyl2-phenylpiperidinium iodide] | 
3 | 80 nM | O=CN1CCC[C@H](OCc2cc(C(F)(F)F)cc(C(F)(F)F)c2)[C@@H]1c1ccccc1 [Example 16, (2S,3S)-1-Formyl-3-((3,5-bis(trifluoromethyl)phenyl)methyloxy)-2-phenyl piperidine] | 
4 | 2 nM | CC1CC[C@H](OCc2cc(C(F)(F)F)cc(C(F)(F)F)c2)[C@H](c2ccccc2)N1 (stereo partly drawn) [Example 20, cis-3-(3,5-Bis(trifluoromethyl)phenyl)methyloxy-6-methyl-2-phenyl piperidinium hydrochloride] | 
5 |  | Cc1cc(CO[C@H]2CCCN(C(=O)OC(C)(C)C)[C@H]2c2ccccc2)cc([Si](C)(C)C)c1 [Example 33] | > 300 nM
6 | 0.5 nM | Cc1cc(I)cc(CO[C@H]2CCCN[C@H]2c2ccccc2)c1 [Example 36] | 
7 |  | Cc1cc(CO[C@H]2CCCN[C@H]2c2ccccc2)cc([Si](C)(C)C)c1 [Example 44, cis-3-((3-methyl-5-trimethylsilyl)benzyloxy)-2-phenyl piperidine] | 0.3 nM
8 | 45 nM | CC1(OCc2cc(C(F)(F)F)cc(C(F)(F)F)c2)CCCNC1c1ccccc1 (stereo not shown) [Example 48, 3-((3,5-Bis(trifluoromethyl)phenyl)methyloxy)-3-methyl-2-phenylpiperidine oxalate salt] | 
9 | 2 nM | OCC1CC[C@H](OCc2cc(C(F)(F)F)cc(C(F)(F)F)c2)[C@H](c2ccccc2)N1 (stereo partly shown) [Example 55] | 
10 | 25 nM | CC(C)(C)NC(=O)CN1CCC[C@H](OCc2cc(C(F)(F)F)cc(C(F)(F)F)c2)[C@@H]1c1ccccc1 [Example 56, (2S,3S)-3-((3,5-Bis(trifluoromethyl)phenyl)methyloxy-1-((N-t-butyl)carboxamidomethyl)-2-phenylpiperidinium hydrochloride] | 
11 | 2.5 nM | O=C(CN1CCC[C@H](OCc2cc(C(F)(F)F)cc(C(F)(F)F)c2)[C@@H]1c1ccccc1)NC1CC1 [Example 57, (2S,3S)-3-((3,5-Bis(trifluoromethyl)phenyl)methyloxy)-1-((N-cyclopropyl)-2-phenylpiperidinium hydrochloride] | 
12 | 20 nM | cis-3-((3,5-Bis(trifluoromethyl)phenyl)methyloxy-1-(N-benzylcarboxamido)methyl-2-phenyl piperidinium hydrochloride [Example 49] | 

Row | Molecule | IC50 (read-out: IC50 @ NKIR) | IC50 (IC50 @ NKIR)
13 | FC(F)(F)c1cc(CO[C@H]2CCCN[C@H]2c2ccccc2)cc(C(F)(F)F)c1 [Example 11, (-)-cis-3-((3,5-Bis(trifluoromethyl)phenyl)methyloxy)-2-phenyl piperidine hydrochloride salt] | 350 nM | 
